The structures appear in SMILES notation. Like-named read-outs stand apart in the source and are kept apart here.

In experiment [1] the test system is chloroquine resistant P. falciparum parasites (strain Dd2). The experiment is described as follows: Parasite growth inhibition assay in human red blood cells (flow cytometry, acridine orange). Type of experiment: cell-based. Conditions: Plasmodium falciparum, Erythrocyte. The procedure: The chloroquine resistant P. falciparum parasites (strain Dd2) were cultured in de-identified, IRB-exempt human red blood cells (RBCs) obtained from the American Red Cross and parasite cultures were maintained as described. Parasitaemia (percentage of total RBCs infected) was measured by flow cytometry on an Attune NxT (ThermoFisher) by nucleic-acid staining of cultured RBCs with phosphate-buffered saline (PBS) containing 0.8 µg ml^−1 acridine orange. We began by determining percent growth inhibition at single compound dose (20 µM) for the 102 non-toxic compounds. […] The experiments were initiated with a starting parasitaemia of ∼1% and parasitaemia was measured 72 and 96 h post compound addition. Growth was normalised to parasite cultures with carrier only (DMSO).
We tested the ability of the 102 compounds to kill P. falciparum parasites cultured in human red blood cells. Due to the number of compounds, we used a single inhibitor concentration of 20 µM and performed experiments in triplicate. […] These compounds were then tested in a dose-response format against chloroquine resistant P. falciparum parasites (Dd2) and the resulting data were fit to a sigmoidal growth inhibition curve to determine EC50 values (Figure 5, Table 2). […] Finally, to determine if the compounds were killing the parasites solely via apicoplast disruption, the dose-response curves were also performed with 1 mM isopentylpyrophosphate (IPP) in the growth media (Table 2). […] Very little is known regarding mitochondrial DNA replication in P. falciparum; however, signal sequence identification algorithms have predicted that the other bacterial A-family DNA polymerase residing in P. falciparum is targeted to the mitochondria (PF3D7_0625300)[29]. […] We are currently in the process of cloning and expressing this putative mitochondrial DNA polymerase to determine the effect of these compounds on its activity.

In experiment [2] the target is P. falciparum apicoplast DNA polymerase (Pf-apPOL) (Plasmodium falciparum, UniProt Q8ILY1). Nature of the experiment: Fluorescence-based high-throughput DNA polymerase assay (molecular beacon), primary screen and dose-response.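 On % inhibition ApPOL 90': test concentration in µM.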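 On % inhibition Apol 40': compound concentration given in µM.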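 On % inhibition apPOL 180': test concentration in µM.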 The following applies: for DNA Pol: 90 min, 10 µM. It is filed as biochemical. The essentials: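 Single-point screening used 10 µM compound with 20 nM polymerase, 20 nM hairpin substrate and 6 µM dNTPs for 90 min at 25 °C. Confirmatory titrations (2.5–80 µM) followed fluorescence at three times, and IC50 was derived from a fit including a cooperativity term n.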

The mark [3] stands for this setting: Dd2 parasites in human RBCs, dose-response, no IPP, read-out: EC50.
[4] abbreviates: Dd2 parasites, 1 mM isopentylpyrophosphate (IPP) in the growth media, read-out: EC50 + IPP.
[5] abbreviates: read-out: IC50 Pf-apPOL, Table 2.
[6] abbreviates: supplemental file 2, sheet IC50 nontoxic compounds, Pf-apPOL.

P. falciparum apicoplast DNA polymerase (Pf-apPOL), sequence (Q8ILY1 entry or part of it): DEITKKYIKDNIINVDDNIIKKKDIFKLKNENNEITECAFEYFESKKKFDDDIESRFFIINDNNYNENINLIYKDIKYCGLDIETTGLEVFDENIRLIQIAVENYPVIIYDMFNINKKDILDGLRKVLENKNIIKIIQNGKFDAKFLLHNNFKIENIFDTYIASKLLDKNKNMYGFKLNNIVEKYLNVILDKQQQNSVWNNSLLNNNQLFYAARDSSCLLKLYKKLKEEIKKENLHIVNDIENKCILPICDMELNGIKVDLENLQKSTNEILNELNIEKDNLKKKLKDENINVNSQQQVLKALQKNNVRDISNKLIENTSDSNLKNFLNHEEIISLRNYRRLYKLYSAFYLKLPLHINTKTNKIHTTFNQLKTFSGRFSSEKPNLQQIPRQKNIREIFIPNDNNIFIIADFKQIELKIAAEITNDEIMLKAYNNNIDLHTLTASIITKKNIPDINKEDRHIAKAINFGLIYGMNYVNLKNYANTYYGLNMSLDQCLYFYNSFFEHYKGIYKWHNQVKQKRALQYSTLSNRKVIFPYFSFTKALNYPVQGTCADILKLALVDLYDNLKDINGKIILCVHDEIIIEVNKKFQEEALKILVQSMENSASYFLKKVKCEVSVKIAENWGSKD

Consider `O=C1Nc2ccc(I)cc2C1=Cc1cc(Br)c(O)c(Br)c1` [Molecule 27], for which the EC50 was determined as 10 ± 1 µM in experiment [1] (setting [3]) and 9 ± 1 µM in experiment [1] (setting [4]). For the same molecule, the IC50 came out at 15 ± 1 µM in experiment [2] (setting [5]) and 15.6 µM in experiment [2] (setting [6]).
Turning to `Cn1nc(-c2nnc(-c3ccccc3F)o2)c2c1CCN(C(=O)c1ccccc1Cl)C2` [Molecule 34], the EC50 in experiment [1] (setting [3]) is 11.3 ± 0.9 µM; in experiment [1] (setting [4]), 10 ± 0.7 µM. For the same molecule, the IC50 in experiment [2] (setting [5]) amounted to 7.2 ± 0.9 µM; in experiment [2] (setting [6]), 7.21 µM.
In the same order, the values of `CC(C)(C)c1cc(C(=O)C(C#N)=NNc2cccc(Cl)c2)no1` [Molecule 98] are 16 ± 1 µM, 11 ± 1 µM, 8 ± 2 µM and 8.45 µM.
With `Cc1cc(C)c2c(c1)C1C=CCC1C(c1ccc(C(=O)O)cc1)N2` (centres unmarked) [Molecule 102, Cc1cc(C)c2c(c1)C1C=CCC1C(N2)c1ccc(cc1)C(=O)O], the “DNA Pol” value came out at 60 in experiment [2] ('DNA Pol' of the 186 hits list (screen value)) and 60 in experiment [2] (primary screen value, "DNA Pol"). Also, the “% inhibition Apo pol 10'” value is reported as 46.2676% in experiment [2] (DRC-1, conc 2.5); 62.6778% in experiment [2] (DRC-1, conc 5); 76.4739% in experiment [2] (DRC-1, conc 10); 82.8067% in experiment [2] (DRC-1, conc 20); 91.6956% in experiment [2] (DRC-1, conc 40); 93.5405% in experiment [2] (DRC-1, conc 80). Also, the “% inhibition Apol 90'” value came out at 14.3309% in experiment [2] (DRC-1, conc 2.5); 28.3959% in experiment [2] (DRC-1, conc 5); 47.4171% in experiment [2] (DRC-1, conc 10); 62.2374% in experiment [2] (DRC-1, conc 20); 86.2676% in experiment [2] (DRC-1, conc 40); 94.9161% in experiment [2] (DRC-1, conc 80). The “% inhibition apPOL 180'” value in experiment [2] (DRC-1, conc 2.5) is reported as 1.778%; in experiment [2] (DRC-1, conc 5), 12.6672%; in experiment [2] (DRC-1, conc 10), 32.4501%; in experiment [2] (DRC-1, conc 20), 53.0918%; in experiment [2] (DRC-1, conc 40), 83.5057%; in experiment [2] (DRC-1, conc 80), 95.0431%. In addition, the “% inhibition apPOL 180'” value amounted to 19% in experiment [2] (DRC-2, conc 2.5); 40% in experiment [2] (DRC-2, conc 5); 54% in experiment [2] (DRC-2, conc 10); 75% in experiment [2] (DRC-2, conc 20); 83% in experiment [2] (DRC-2, conc 40); 83% in experiment [2] (DRC-2, conc 80). Further, the “% inhibition apPOL 180'” value in experiment [2] (DRC-2, concentration 5) turned out to be 40%; in experiment [2] (DRC-2, concentration 20), 75%; in experiment [2] (DRC-2, concentration 40) it was 83%; in experiment [2] (DRC-2, concentration 80), 83%. Moreover, the “% inhibition Apo pol 5'” value came to 40% in experiment [2] (DRC-2, conc 2.5); 51% in experiment [2] (DRC-2, conc 5); 55% in experiment [2] (DRC-2, conc 10); 58% in experiment [2] (DRC-2, conc 20); 59% in experiment [2] (DRC-2, conc 40); 58% in experiment [2] (DRC-2, conc 80). For the same molecule, the “% inhibition Apo pol 5'” value amounted to 40% in experiment [2] (DRC-2, concentration 2.5); 58% in experiment [2] (DRC-2, concentration 20); 59% in experiment [2] (DRC-2, concentration 40); 58% in experiment [2] (DRC-2, concentration 80). Further, the “% inhibition Apol 40'” value in experiment [2] (DRC-2, conc 2.5) was 34%; in experiment [2] (DRC-2, conc 5), 50%; in experiment [2] (DRC-2, conc 10), 59%; in experiment [2] (DRC-2, conc 20), 71%; in experiment [2] (DRC-2, conc 40) it was 76%; in experiment [2] (DRC-2, conc 80), 75%. For the same molecule, the “% inhibition Apol 40'” value was found to be 59% in experiment [2] (DRC-2, concentration 10) and 75% in experiment [2] (DRC-2, concentration 80). The “% inhibition ApPOL 90'” value is reported as 28% in experiment [2] (DRC-2, conc 2.5); 47% in experiment [2] (DRC-2, conc 5); 58% in experiment [2] (DRC-2, conc 10); 73% in experiment [2] (DRC-2, conc 20); 80% in experiment [2] (DRC-2, conc 40); 79% in experiment [2] (DRC-2, conc 80). The “% inhibition ApPOL 90'” value in experiment [2] (DRC-2, concentration 10) amounted to 58%.
`Cc1cc(C)c2c(c1)C1C=CCC1C(c1ccc(C(=O)O)cc1)N2` (centres unmarked) [Molecule 102]: in experiment [2] (setting [6]), the IC50 stood at 2.89 µM.
